From the supplement of paper PMC10307832

Experiments:
Assay in all cases: relative viability (nuclei count vs DMSO), 5 days (fraction); higher = more cells survive
Irinotecan + Pictilisib = compound: CCc1c2c(nc3ccc(OC(=O)N4CCC(N5CCCCC5)CC4)cc13)-c1cc3c(c(=O)n1C2)COC(=O)[C@]3(O)CC [Irinotecan] + CS(=O)(=O)N1CCN(Cc2cc3nc(-c4cccc5[nH]ncc45)nc(N4CCOCC4)c3s2)CC1 [Pictilisib] (partner 1 µM)
Procedure, shortened: (§1)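 Nuclei were stained with Hoechst during a one-step fixation (final 0.05% Triton X-100, 1% formaldehyde, 1 ug/ml Hoechst) carried out 5 days after dosing, then counted on 4× images. The cells, lung cancer lines in 1536-well plates, had been dosed by pin tool the day after seeding with one drug alone or a fixed anchor-drug dose plus five library-drug doses (not always all listed) in √10 steps. Relative viability is the nuclei count in treated wells divided by that in vehicle wells, and each value is the median of duplicate plates.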

RU-SKI 43 + Trametinib = compound: CC[C@@H](C)CNCC(=O)N1CCC2=C([C@@H]1COC3=CC=CC(=C3)C)C=CS2 [RU-SKI 43] + CC(=O)Nc1cccc(-n2c(=O)n(C3CC3)c(=O)c3c(Nc4ccc(I)cc4F)n(C)c(=O)c(C)c32)c1 [Trametinib] (partner 0.02 µM)
Procedure, shortened: as §1

Irinotecan + Olaparib = compound: CCc1c2c(nc3ccc(OC(=O)N4CCC(N5CCCCC5)CC4)cc13)-c1cc3c(c(=O)n1C2)COC(=O)[C@]3(O)CC [Irinotecan] + O=C(c1cc(Cc2n[nH]c(=O)c3ccccc23)ccc1F)N1CCN(C(=O)C2CC2)CC1 [Olaparib] (partner 8 µM)
Procedure, shortened: as §1

RU-SKI 43 + Crizotinib = compound: CC[C@@H](C)CNCC(=O)N1CCC2=C([C@@H]1COC3=CC=CC(=C3)C)C=CS2 [RU-SKI 43] + C[C@@H](Oc1cc(-c2cnn(C3CCNCC3)c2)cnc1N)c1c(Cl)ccc(F)c1Cl [Crizotinib] (partner 1 µM)
Procedure, shortened: as §1

Cell Line	relative viability (Irinotecan + Pictilisib; first compound 0.6325 µM)	relative viability (Irinotecan + Pictilisib; first compound 2 µM)	relative viability (Irinotecan + Pictilisib; first compound 6.325 µM)	relative viability (Irinotecan + Pictilisib; first compound 20 µM)	relative viability (RU-SKI 43 + Trametinib; first compound 0.1 µM)	relative viability (RU-SKI 43 + Trametinib; first compound 0.3162 µM)	relative viability (RU-SKI 43 + Trametinib; first compound 1 µM)	relative viability (RU-SKI 43 + Trametinib; first compound 3.162 µM)	relative viability (RU-SKI 43 + Trametinib; first compound 10 µM)	relative viability (Irinotecan + Olaparib; first compound 0.6325 µM)	relative viability (Irinotecan + Olaparib; first compound 2 µM)	relative viability (Irinotecan + Olaparib; first compound 6.325 µM)	relative viability (Irinotecan + Olaparib; first compound 20 µM)	relative viability (RU-SKI 43 + Crizotinib; first compound 0.1 µM)	relative viability (RU-SKI 43 + Crizotinib; first compound 0.3162 µM)	relative viability (RU-SKI 43 + Crizotinib; first compound 1 µM)	relative viability (RU-SKI 43 + Crizotinib; first compound 3.162 µM)	relative viability (RU-SKI 43 + Crizotinib; first compound 10 µM)
NCI-H1651	0.427	0.425	0.175	0.108	0.793	0.876	0.966	0.893	0.835	0.164	0.142	0.107	0.117	0.886	0.971	0.891	0.887	0.865
NCI-H1355	0.201	0.407	0.202	0.238	0.451	0.437	0.376	0.477	0.464	–	0.321	0.278	0.209	1.07	1.14	1.17	1.26	1.01
NCI-H1563	0.59	0.684	0.731	0.3	–	–	–	–	–	–	–	–	–	0.789	0.773	0.825	0.836	0.734
NCI-H1650	0.254	0.657	0.295	0.108	0.556	0.703	0.533	0.712	0.55	0.722	0.436	0.296	0.139	0.968	0.916	0.971	0.991	0.67
HCC-78	0.276	0.172	0.149	0.158	0.678	0.916	0.641	0.809	0.724	0.492	0.332	0.233	0.343	0.334	0.305	0.35	0.353	0.302
NCI-H1437	0.366	0.322	0.184	0.115	0.492	0.555	0.59	0.527	0.363	0.434	0.429	0.316	0.272	0.873	1.29	1.11	0.93	0.875
BEN	0.508	0.461	0.253	0.349	0.967	1.12	1.06	1.11	1.01	0.681	0.53	0.425	0.528	0.933	1.14	1.03	0.865	0.758
LCLC-103H	0.406	0.51	0.331	0.408	0.689	0.755	0.726	0.677	0.724	0.469	0.483	0.407	0.444	1.08	1.12	1.08	1.09	0.926
